Measurements published in US6632816B1, “Aromatic derivatives as HIV aspartyl protease inhibitors” (Pharmacor Inc., priority 2002, dated 2003).
Like-named read-outs stand apart in the source and are kept apart here.

Columns and labels:
HIV protease = HIV protease (Human immunodeficiency virus type 1 group M subtype B, UniProt P04585); experiment: biochemical
[1] = tested on: HIV-1 laboratory viral strain NL4.3 (wild type virus); experiment: Anti-viral assay in vitro (MTT, infected MT-4 cells); type: cell-based; conditions: Human immunodeficiency virus 1, MT4, 144 h
Procedure: Anti-viral and Cytotoxicity Assays In Vitro
To evaluate the EC50 of our compounds, various drug concentrations are incubated with the infected cell for six days and then the metabolic activity of the cells is monitored by the MTT assay. (See A. J. Japour et al, Antimicrobial Agents and Chemotherapy, 37, 1095-1101, 1993 and R. Pauwels et al. Journal of Virological Methods, 20, 309-321, 1988)
We use the laboratory viral strain NL4.3 as wild type virus and the cell line used is MT-4 which is a T-cell line highly sensitive to HIV-1. We also use some WT clinical strains. To address the resistance issue we assay the inhibitors with NL4.3 mutants which are designed to be resistant to specific commercially,available inhibitors

[2] = MT-4 cells infected with NL4.3, six days, MTT assay, read-out: EC50

SMILES	Ki (HIV protease) [nM]	EC50 [1, 2] [nM]	EC50 [1] [nM]
CC(C)CN([C@H](CO)CCCCNC(=O)[C@H](Cc1ccc2ccccc2c1)NC(=O)N1CCOCC1)S(=O)(=O)c1ccc(N)cc1 [Example 33, (1S,5S)-Morpholine-4-carboxylic Acid (1-{5-[(4-Amino-benzenesulfonyl)-isobutyl-amino]-6-hydroxy-hexylcarbamoyl}-2-naphthalen-2-yl-ethyl)-amide]	0.8	92	–
COC(=O)N[C@H](C(=O)NCCCC[C@@H](CO)N(CC(C)C)S(=O)(=O)c1ccc(N)cc1)C(c1ccccc1)c1ccccc1 [Example 34, (1S,5S)-(1-{5-[(4-Amino-benzenesulfonyl)-isobutyl-amino]-6-hydroxy-hexylcarbamoyl}-2,2-diphenyl-ethyl)-carbamic Acid Methyl Ester]	0.5	12	–
COc1ccc(S(=O)(=O)N(CC(C)C)[C@H](CO)CCCCNC(=O)[C@H](Cc2ccc3ccccc3c2)NC(=O)N2CCOCC2)cc1 [Example 35, (1S,5S)-Morpholine-4-carboxylic Acid (1-{6-Hydroxy-5-[isobutyl-(4-methoxy-benzenesulfonyl)-amino]-hexylcarbamoyl}-2-naphthalen-2-yl-ethyl)-amide]	1.3	–	275
COC(=O)N[C@@H](Cc1ccccc1-c1ccc(OC)cc1)C(=O)NCCCC[C@@H](CO)N(CC(C)C)S(=O)(=O)c1ccc(OC)cc1 [Example 36, (1S,5S)-[1-{6-Hydroxy-5-[isobutyl-(4-methoxy-benzenesulfonyl)-amino]-hexylcarbamoyl}-2-(4′-methoxy-biphenyl-2-yl)-ethyl]-carbamic Acid Methyl Ester]	3.2	–	2180
CC(C)CN(C(CO)CCCCNC(=O)C(Cc1ccc2ccccc2c1)NC(=O)C1CCOC1)S(=O)(=O)c1ccc(N)cc1 [Example 37, (1S,3R,S,5S)-Tetrahydro-furan-3-carboxylic Acid (1-{5-[(4-Amino-benzenesulfonyl)-isobutyl-amino]-6-hydroxy-hexylcarbamoyl}-2-naphthalen-2-yl-ethyl)-amide]	2.7	325	–
COc1ccc(-c2ccccc2C[C@H](NC(=O)N2CCOCC2)C(=O)NCCCC[C@@H](CO)N(CC(C)C)S(=O)(=O)c2ccc(N)cc2)cc1 [Example 38, (1S,5S)-Morpholine-4-carboxylic Acid [1-{5-[(4-Amino-benzenesulfonyl)-isobutyl-amino]-6-hydroxy-hexylcarbamoyl}-2-(4′-methoxy-biphenyl-2-yl)-ethyl]-amide]	0.533	93	–
COC(=O)N[C@@H](Cc1ccccc1-c1ccccc1)C(=O)NCCCC[C@@H](CO)N(CC(C)C)S(=O)(=O)c1ccc(N)cc1 [Example 39, (1S,5S)-(1-{5-[(4-Amino-benzenesulfonyl)-isobutyl-amino]-6-hydroxy-hexylcarbamoyl}-2-biphenyl-2-yl-ethyl)-carbamic Acid Methyl Ester]	0.521	200	–
CC(C)CN([C@H](CO)CCCCNC(=O)[C@@H](NC(=O)N1CCOCC1)C(c1ccccc1)c1ccccc1)S(=O)(=O)c1ccc(N)cc1 [Example 40, (1S,5S)-Morpholine-4-carboxylic Acid (1-{5-[(4-Amino-benzenesulfonyl)-isobutyl-amino]-6-hydroxy-hexylcarbamoyl}-2,2-diphenyl-ethyl)-amide]	0.512	78	–
CC(C)CN([C@H](CO)CCCCNC(=O)[C@H](Cc1ccc2ccccc2c1)NC(=O)N(C)C)S(=O)(=O)c1ccc(N)cc1 [Example 41, (2S,5S)-N-{5-[(4-Amino-benzenesulfonyl)-isobutyl-amino]-6-hydroxy-hexyl}-2-(3,3-dimethyl-ureido)-3-naphthalen-2-yl-propionamide]	1.1	79	–
CC(C)CN([C@H](CO)CCCCNC(=O)[C@H](Cc1ccccc1-c1ccccc1)NC(=O)N1CCOCC1)S(=O)(=O)c1ccc(N)cc1 [Example 43, (1S,5S)-Morpholine-4-carboxylic Acid (1-{5-[(4-Amino-benzenesulfonyl)-isobutyl-amino]-6-hydroxy-hexylcarbamoyl}-2-biphenyl-2-yl-ethyl)-amide]	0.598	697	–
CC(C)CN([C@H](CO)CCCCNC(=O)[C@H](Cc1cccc2ccccc12)NC(=O)N1CCOCC1)S(=O)(=O)c1ccc(N)c(Cl)c1 [Example 44, (1S,5S)-Morpholine-4-carboxylic Acid (1-{5-[(4-Amino-3-chloro-benzenesulfonyl)-isobutyl-amino]-6-hydroxy-hexylcarbamoyl}-2-naphthalen-1-yl-ethyl)-amide]	0.904	134	–
COc1ccc(S(=O)(=O)N(CC(C)C)[C@H](CO)CCCCNC(=O)[C@H](Cc2cccc3ccccc23)NC(=O)N2CCOCC2)cc1 [Example 45, (1S,5S)-Morpholine-4-carboxylic Acid (1-{6-Hydroxy-5-[isobutyl-(4-methoxy-benzenesulfonyl)-amino]-hexylcarbamoyl}-2-naphthalen-1-yl-ethyl)-amide]	1.5	597	–
CC(C)CN([C@H](CO)CCCCNC(=O)[C@H](Cc1ccc2ccccc2c1)NC(=O)C(C)(C)C)S(=O)(=O)c1ccc(N)cc1 [Example 46, (1S,5S)-N-(1-{5-[(4-Amino-benzenesulfonyl)-isobutyl-amino]-6-hydroxy-hexylcarbamoyl}-2-naphthalen-2-yl-ethyl)-2,2-dimethyl-propionamide]	0.809	167	–
CC(C)CN([C@H](CO)CCCCNC(=O)[C@H](Cc1ccc2ccccc2c1)NC(=O)C1CC1)S(=O)(=O)c1ccc(N)cc1 [Example 47, (1S,5S)-Cyclopropanecarboxylic Acid (1-{5-[(4-Amino-benzenesulfonyl)-isobutyl-amino]-6-hydroxy-hexylcarbamoyl}-2-naphthalen-2-yl-ethyl)-amide]	1.4	323	–
CC(=O)N[C@@H](Cc1ccc2ccccc2c1)C(=O)NCCCC[C@@H](CO)N(CC(C)C)S(=O)(=O)c1ccc(N)cc1 [Example 48, (2S,5S)-2-Acetylamino-N-{5-[(4-amino-benzenesulfonyl)-isobutyl-amino]-6-hydroxy-hexyl}-3-naphthalen-2-yl-propionamide]	3.6	948	–
COC(=O)N[C@H](C(=O)NCCCC[C@@H](CO)N(CC(C)C)S(=O)(=O)c1ccc(N)c(Cl)c1)C(c1ccccc1)c1ccccc1 [Example 50, (1S,5S)-(1-{5-[(4-Amino-3-chloro-benzenesulfonyl)-isobutyl-amino]-6-hydroxy-hexylcarbamoyl}-2,2-diphenyl-ethyl)-carbamic Acid Methyl Ester]	0.776	95	–
CC(C)CN([C@H](CO)CCCCNC(=O)[C@H](Cc1ccc2ccccc2c1)NC(=O)N1CCOCC1)S(=O)(=O)c1ccc(N)c(Cl)c1 [Example 51, (1S,5S)-Morpholine-4-carboxylic Acid (1-{5-[(4-Amino-3-chloro-benzenesulfonyl)-isobutyl-amino]-6-hydroxy-hexylcarbamoyl}-2-naphthalen-2-yl-ethyl)-amide]	0.8	194	–
COC(=O)N[C@@H](Cc1ccccc1-c1cccc(F)c1)C(=O)NCCCC[C@@H](CO)N(CC(C)C)S(=O)(=O)c1ccc(N)cc1 [Example 52, (1S,5S)-[1-{5-[(4-Amino-benzenesulfonyl)-isobutyl-amino]-6-hydroxy-hexylcarbamoyl}-2-(3′-fluoro-biphenyl-2-yl)-ethyl]-carbamic Acid Methyl Ester]	0.7	152	–
CC(C)CN([C@H](CO)CCCCNC(=O)[C@H](Cc1cccc2ccccc12)NC(=O)N1CCOCC1)S(=O)(=O)c1ccc(F)c(N)c1 [Example 53, (1S,5S)-Morpholine-4-carboxylic Acid (1-{5-[(3-Amino-4-fluoro-benzenesulfonyl)-isobutyl-amino]-6-hydroxy-hexylcarbamoyl}-2-naphthalen-1-yl-ethyl)-amide]	0.626	40	–
CC(C)CN([C@H](CO)CCCCNC(=O)[C@H](Cc1ccc2ccccc2c1)NC(=O)c1cccnc1)S(=O)(=O)c1ccc(N)cc1 [Example 54, (1S,5S)-N-(1-{5-[(4-Amino-benzenesulfonyl)-isobutyl-amino]-6-hydroxy-hexylcarbamoyl}-2-naphthalen-2-yl-ethyl)-nicotinanide]	1.4	146	–
CC(C)CN([C@H](CO)CCCCNC(=O)[C@H](Cc1ccc2ccccc2c1)NC(=O)c1ccncc1)S(=O)(=O)c1ccc(N)cc1 [Example 55, (1S,5S)-N-(1-{5-[(4-Amino-benzenesulfonyl)-isobutyl-amino]-6-hydroxy-hexylcarbamoyl}-2-naphthalen-2-yl-ethyl)-isonicotinamide]	1.3	110	–
COC(=O)N[C@@H](Cc1ccccc1-c1cccc(F)c1)C(=O)NCCCC[C@@H](CO)N(CC(C)C)S(=O)(=O)c1ccc(F)c(N)c1 [Example 56, (1S,5S)-[1-{5-[(3-Amino-4-fluoro-benzenesulfonyl)-isobutyl-amino]-6-hydroxy-hexylcarbamoyl}-2-(3′-fluoro-biphenyl-2-yl)-ethyl]-carbamic Acid Methyl Ester]	1.3	300	–
COC(=O)N[C@H](C(=O)NCCCC[C@@H](CO)N(CC(C)C)S(=O)(=O)c1ccc(F)c(N)c1)C(c1ccccc1)c1ccccc1 [Example 58, (1S,5S)-(1-{5-[(3-Amino-4-fluoro-benzenesulfonyl)-isobutyl-amino]-6-hydroxy-hexylcarbamoyl}-2,2-diphenyl-ethyl)-carbamic Acid Methyl Ester]	0.65	25	–
